Patent US8686224B2, “Plant defense signal peptides” (priority 2005, dated 2014)
Entries after “also recorded” stand apart in the source; their conditions may differ.

What was measured:
[1] = system: Arabidopsis suspension cultured cells; assay: Alkalinization assay with Arabidopsis suspension cultured cells; format: cell-based, Arabidopsis thaliana; conditions: Arabidopsis suspension cultured cells, pH of media after 20 min
Method: For the alkalinization assay, cells suspensions are grown in a volume of 40 ml in a 125 ml flask. Tobacco and Arabidopsis cells are typically grown for 3-5 days before use. Tomato cells are typically grown for 4-7 days before use. Soybean cells are generally grown for 3-7 days before use. Preferably, cells are in mid to log or log phase when they are to be used for the alkalinization assay. A 1 ml pipette tip with the end cut off (to prevent clogging of the tip with the cells) is used to aliquot 1 ml of the cells from the suspension into a well in a 24-well culture cluster plate. The flask is swirled between aliquots to ensure that the cells remain evenly dispersed throughout the cell suspension and an roughly equivalent number of cells is provided to each well. The plate(s) are then shaken at 160 rpm for 1 hour. Small aliquots ([…]) of extracted peptide fractions are then added to the wells. After 20 min, the pH of the cell media is measured and recorded.
Alkalinization Assay. Arabidopsis suspension cells were grown with shaking in the dark in 125 mL flasks, using 40 mL NT media as previously described (Pearce et al. Proc. Natl. Acad. Sci. USA 98:12843-12847, 2001). The cells were transferred weekly (2.5 mL) and used for assays 3-5 days after transfer. One mL aliquots of cells were transferred to wells of 24-well culture plates and allowed to equilibrate for one hour while agitated on a rotary shaker at 160 rpm. Aliquots of 1-10 μL from extracts or fractions eluted from HPLC columns were added to cells and the pH of the media was monitored after 20 min.
Alkalinization assay. Medium alkalinization activity of Arabidopsis suspension cultured cells by AtPep1 analogs was analyzed as previously described for systemin (Pearce et al., Science 253:895-897, 1991), RALF (Pearce et al. Proc. Natl. Acad. Sci. USA 98:12843-12847, 2001), HypSys peptides (Pearce and Ryan. J. Biol. Chem. 278:30044-30050, 2003; Pearce et al., Nature 411:817-820, 2001), and AtPep1 (supra). The alkalinization activity of azido-Cys-AtPep1 were carried out after incubation the analog with cells in darkness for 10 min, when the pH was recorded.
Analogs of AtPep1 from the C-terminus of AtPep1 were synthesized and assayed in the alkalinization assay. One mL aliquots of 4 day old Arabidopsis cells were allowed to equilibrate on an orbital shaker at 180 rpm for one hour. A 10 μL aliquot of each peptide solution was added to the cells. Peptide concentrations of 0.25 nM, 2.5 nM, and 25 nM were tested. After 20 min, the pH of the media was recorded.
The 15-mer from the carboxy-terminus of AtPep1 ([…] (SEQ ID NO: 78)) was substituted with alanine at each position to assess which amino acids were necessary for the alkalinizing activity. […] The set of substituted 15-mer peptides was assayed using four-day-old Arabidopsis cells. […] of each peptide (2.5 pmoles) was added to 1 ml of cells to make a final concentration of 2.5 nM. After 20 min, the pH of the media was recorded. The data is the average of three separate experiments.

AtPEPR1 = target: T1, AtPEPR1 (Arabidopsis thaliana, UniProt Q9SSL9); assay: Medium alkalinization of transgenic tobacco cells expressing AtPEPR1; format: cell-based
T1 construct: Tobacco cells were transformed with a CaMV-35S-AtPEPR1 gene; expressed in transfected cells; host or cells: tobacco suspension-cultured cells (Agrobacterium-mediated, CaMV 35S promoter)
T1 sequence (Q9SSL9 29-1123): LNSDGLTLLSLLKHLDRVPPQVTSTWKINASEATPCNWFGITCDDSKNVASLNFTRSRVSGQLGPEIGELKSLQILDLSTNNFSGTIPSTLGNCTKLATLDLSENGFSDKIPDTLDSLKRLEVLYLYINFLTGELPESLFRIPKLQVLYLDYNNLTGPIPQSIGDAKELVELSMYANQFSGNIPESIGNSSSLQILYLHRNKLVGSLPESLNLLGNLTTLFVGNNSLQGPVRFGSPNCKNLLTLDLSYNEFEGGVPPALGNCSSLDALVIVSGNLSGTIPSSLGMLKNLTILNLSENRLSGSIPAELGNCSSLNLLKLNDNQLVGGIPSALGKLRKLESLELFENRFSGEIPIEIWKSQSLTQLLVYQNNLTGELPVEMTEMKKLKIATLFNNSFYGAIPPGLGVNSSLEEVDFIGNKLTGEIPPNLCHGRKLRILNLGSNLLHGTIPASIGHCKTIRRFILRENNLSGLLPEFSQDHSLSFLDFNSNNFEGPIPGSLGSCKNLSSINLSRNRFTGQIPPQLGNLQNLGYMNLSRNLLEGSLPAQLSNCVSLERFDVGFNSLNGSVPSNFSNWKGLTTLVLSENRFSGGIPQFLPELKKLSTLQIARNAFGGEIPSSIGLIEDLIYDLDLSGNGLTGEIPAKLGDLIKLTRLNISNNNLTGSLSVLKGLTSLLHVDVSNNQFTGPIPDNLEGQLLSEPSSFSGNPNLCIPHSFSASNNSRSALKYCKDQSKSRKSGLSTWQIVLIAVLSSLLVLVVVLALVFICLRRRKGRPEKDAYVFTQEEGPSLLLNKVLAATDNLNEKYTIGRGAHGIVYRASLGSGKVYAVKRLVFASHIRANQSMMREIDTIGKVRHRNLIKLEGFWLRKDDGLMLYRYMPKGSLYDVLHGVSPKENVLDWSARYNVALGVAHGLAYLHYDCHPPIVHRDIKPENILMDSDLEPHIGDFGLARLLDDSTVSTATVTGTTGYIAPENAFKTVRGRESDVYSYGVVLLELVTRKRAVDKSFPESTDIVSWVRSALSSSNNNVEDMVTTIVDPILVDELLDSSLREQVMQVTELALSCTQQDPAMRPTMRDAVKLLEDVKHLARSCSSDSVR
Source text: Tobacco cells were transformed with a CaMV-35S-AtPEPR1 gene to determine whether the foreign receptor protein was targeted to the cell surface, where, in response to AtPep1, it would activate intracellular signaling to effect the alkalinization of the medium of the transgenic tobacco cells. Expression of the AtPEPR1 gene was confirmed by RT-PCR analysis of RNA from three independently transformed tobacco cell lines. […] AtPep2-7 was also supplied to the transgenic tobacco cells expressing AtPEPR1.
To clarify whether AtPEPR2 binds to AtPep1, the AtPEPR2 coding region was fused to the CaMV 35S promoter and introduced into tobacco suspension-cultured cells by Agrobacterium. Tobacco cells expressing AtPEPR1 and GUS genes were also created as positive and negative controls, respectively. […] These transgenic lines were analyzed for alkalinizing activity as previously described (Pearce et al., Proc. Natl. Acad. Sci. USA 98, 12843-12847, 2001).
The response to all AtPep peptides in transgenic tobacco cells expressing either AtPEPR1 or AtPEPR2 was analyzed by the medium alkalinization assay.

[2] = AtPEPR1 expressing tobacco cells

With H-ATKVKAKQRGKEKVSSGRPGQHN-OH [AtPep1] the “activity in the alkalinization assay” value [1] was “at sub-nanomolar concentrations, to cause an alkalinization response; also recorded: as active as the native AtPep1; also recorded: identical activities as the native peptides”, the EC50 ([1]; read-out: half-maximal activity in the alkalinization assay) was 0.25 nM and the EC50 (AtPEPR1) was ~0.25 nM. The “alkalinization of the medium” value (AtPEPR1; [2]) was “strong, reproducible alkalinization; also recorded: caused alkalinization of the media” and the maximal change (AtPEPR1; [2]) was 1.2 pH units.
